Converted amounts (≈) assume the structure as drawn. Where two headings read alike, the source gives them in different places.

The results in this text go back to US9663478B2, “Benzotriazine oxides as drugs targeting Mycobacterium tuberculosis” (priority 2011, dated 2017).

Holding throughout (assay): microbe, parasite or virus in culture
Common to all, as to type: cell-based, Mycobacterium tuberculosis

Assay [1] relates to Mtb strain resistant to Ethambutol ATCC 35837. Particulars: Mycobacterium tuberculosis, ATCC35837, read-out: MIC, Mtb strain resistant to Ethambutol ATCC 35837.
For assay [2], the system named is Mtb strain resistant to P-aminosalicyclic acid ATCC 35821. Particulars: Mycobacterium tuberculosis.
The subject of assay [3] is Mtb strain resistant to Ethionamide ATCC 35830. Particulars: Mycobacterium tuberculosis.
Assay [4] concerns Mtb strain resistant to Streptomycin ATCC 35820. Particulars: Mycobacterium tuberculosis.
In assay [5] the test system is Mtb strain resistant to Isoniazid ATCC 35822. Conditions: Mycobacterium tuberculosis.
Assay [6] concerns Mtb strain resistant to Kanamycin ATCC 35827. Conditions: Mycobacterium tuberculosis.
Where [7] appears, read: ATCC35821, read-out: MIC, Mtb strain resistant to P-aminosalicyclic acid ATCC 35821.
[8] abbreviates: ATCC35830, read-out: MIC, Mtb strain resistant to Ethionamide ATCC 35830.
[9] abbreviates: ATCC35820, 168 h, read-out: MIC, Mtb strain resistant to Streptomycin ATCC 35820.
The mark [10] stands for this setting: ATCC35822, read-out: Activity against Mtb strain resistant to Isoniazid ATCC 35822.
Where [11] appears, read: ATCC35827, read-out: Activity against Mtb strain resistant to Kanamycin ATCC 35827.

For the compound `CC(C)(C)Nc1n[n+]([O-])c2ccccc2[n+]1[O-]` [Compound 8c, 3-(tert-butylamino)benzo[e][1,2,4]triazine 1,4-dioxide], the MIC in assay [1] is 2.5 µg/mL (≈ 10.7 µM); in assay [2] (setting [7]), 1.2 µg/mL (≈ 5.12 µM); in assay [3] (setting [8]), 1.2 µg/mL (≈ 5.12 µM); in assay [4] (setting [9]) it was 1.2 µg/mL (≈ 5.12 µM).

For the compound `[O-][n+]1nc(N2CCCC2)[n+]([O-])c2ccccc21` [Compound 17q, 3-(pyrrolidin-1-yl)benzo[e][1,2,4]triazine 1,4-dioxide], the MIC in assay [1] came to 0.31 µg/mL (≈ 1.33 µM); in assay [2] (setting [7]) it was 0.62 µg/mL (≈ 2.67 µM); in assay [3] (setting [8]), 0.31 µg/mL (≈ 1.33 µM); in assay [4] (setting [9]), 0.02 µg/mL (≈ 0.0861 µM).

On to `[O-][n+]1nc(N2CCCC2)[n+]([O-])c2cc3c(cc21)CCC3` [Compound 20q, 3-(pyrrolidin-1-yl)-7,8-dihydro-6H-indeno[5,6-e][1,2,4]triazine 1,4-dioxide], for which the MIC was 0.31 µg/mL (≈ 1.14 µM) in assay [5] (ATCC35822, 168 h, Table 5, read-out: MIC, Mtb strain resistant to Isoniazid ATCC 35822); 0.63 µg/mL (≈ 2.31 µM) in assay [6] (ATCC35827, 168 h, Table 5, read-out: MIC, Mtb strain resistant to Kanamycin ATCC 35827); 0.16 µg/mL (≈ 0.588 µM) in assay [4] (ATCC35820, 168 h, Table 5, read-out: MIC, Mtb strain resistant to Streptomycin ATCC 35820).

Regarding `[O-][n+]1nc(N2CCCCC2)[n+]([O-])c2cc3c(cc21)CCC3` [Compound 20r, 3-(piperidin-1-yl)-7,8-dihydro-6H-indeno[5,6-e][1,2,4]triazine 1,4-dioxide], the MIC in assay [1] was found to be 0.31 µg/mL (≈ 1.08 µM); in assay [2] (setting [7]), 0.31 µg/mL (≈ 1.08 µM); in assay [3] (setting [8]), 0.31 µg/mL (≈ 1.08 µM); in assay [4] (setting [9]), 0.15 µg/mL (≈ 0.524 µM).

In the case of `CN(C)c1n[n+]([O-])c2cc3c(cc2[n+]1[O-])CCC3` [Compound 20s, 3-(dimethylamino)-7,8-dihydro-6H-indeno[5,6-e][1,2,4]triazine 1,4-dioxide], the MIC in assay [1] is 0.31 µg/mL (≈ 1.26 µM); in assay [2] (setting [7]), 0.15 µg/mL (≈ 0.609 µM); in assay [3] (setting [8]) it was 0.15 µg/mL (≈ 0.609 µM); in assay [4] (setting [9]), less than 0.07 µg/mL.

As to `CN(Cc1ccccc1)c1n[n+]([O-])c2cc3c(cc2[n+]1[O-])CCC3` [Compound 20t, 3-(benzyl(methyl)amino)-7,8-dihydro-6H-indeno[5,6-e][1,2,4]triazine 1,4-dioxide], the MIC in assay [1] was 0.15 µg/mL (≈ 0.465 µM); in assay [2] (setting [7]) it was 0.07 µg/mL (≈ 0.217 µM); in assay [3] (setting [8]), 0.07 µg/mL (≈ 0.217 µM); in assay [4] (setting [9]), less than 0.07 µg/mL.

Consider `CN(CCc1ccccc1)c1n[n+]([O-])c2cc3c(cc2[n+]1[O-])CCC3` [Compound 20u, 3-(methyl(phenethyl)amino)-7,8-dihydro-6H-indeno[5,6-e][1,2,4]triazine 1,4-dioxide], for which the MIC in assay [1] is 0.31 µg/mL (≈ 0.922 µM); in assay [2] (setting [7]) it was 0.15 µg/mL (≈ 0.446 µM); in assay [3] (setting [8]), 0.15 µg/mL (≈ 0.446 µM); in assay [4] (setting [9]) it was less than 0.07 µg/mL.

Consider `CC(C)(C)Nc1n[n+]([O-])c2ccccc2[n+]1[O-]` [SRI-003356], for which the MIC in assay [5] (setting [10]) is 2.5 µg/mL (≈ 10.7 µM); in assay [6] (setting [11]) it was 2.5 µg/mL (≈ 10.7 µM); in assay [2] (ATCC35821, read-out: Activity against Mtb strain resistant to P-aminosalicyclic acid ATCC 35821), 1.25 µg/mL (≈ 5.34 µM); in assay [3] (ATCC35830, read-out: Activity against Mtb strain resistant to Ethionamide ATCC 35830), 1.25 µg/mL (≈ 5.34 µM); in assay [4] (ATCC35820, read-out: Activity against Mtb strain resistant to Streptomycin ATCC 35820) it was 1.25 µg/mL (≈ 5.34 µM).

For the compound `[O-][n+]1nc(NC2CCC2)[n+]([O-])c2cc3c(cc21)CCC3` [SRI-012403], the MIC in assay [5] (setting [10]) and in assay [6] (setting [11]) was 1.25 µg/mL (≈ 4.59 µM) in each case.

For the compound `[O-][n+]1nc(N2CCCC2)[n+]([O-])c2ccccc21` [SRI-012495], the MIC in assay [5] (setting [10]) and in assay [6] (setting [11]) was 0.31 µg/mL (≈ 1.33 µM) throughout.

Turning to `[O-][n+]1nc(N2CCCCC2)[n+]([O-])c2cc3c(cc21)CCC3` [SRI-012562], the figures for the MIC in assay [5] (setting [10]) and in assay [6] (setting [11]) were 0.15 µg/mL (≈ 0.524 µM) and 0.31 µg/mL (≈ 1.08 µM), respectively.

Take `CN(C)c1n[n+]([O-])c2cc3c(cc2[n+]1[O-])CCC3` [SRI-012563]: the MIC in assay [5] (setting [10]) was less than 0.07 µg/mL; in assay [6] (setting [11]), 0.31 µg/mL (≈ 1.26 µM).

With `CN(Cc1ccccc1)c1n[n+]([O-])c2cc3c(cc2[n+]1[O-])CCC3` [SRI-012564], the MIC was less than 0.07 µg/mL in assay [5] (setting [10]) and 0.15 µg/mL (≈ 0.465 µM) in assay [6] (setting [11]).

`CN(CCc1ccccc1)c1n[n+]([O-])c2cc3c(cc2[n+]1[O-])CCC3` [SRI-012565]: the MIC in assay [5] (setting [10]) came to 0.07 µg/mL (≈ 0.208 µM); in assay [6] (setting [11]), 0.15 µg/mL (≈ 0.446 µM).

With `CC1CCCCN1c1n[n+]([O-])c2cc3c(cc2[n+]1[O-])CCC3` (stereo not shown) [SRI-012567], the MIC is 0.31 µg/mL (≈ 1.03 µM) in assay [5] (setting [10]) and 0.62 µg/mL (≈ 2.06 µM) in assay [6] (setting [11]).
